Read-outs that look alike come from different tables or passages of the source.
What was measured:
[1] = tested on: Key Grass and Sedge Weeds as well as Grass Crops; experiment: Post-emergent Test II herbicidal activity (Table 6); format: in vivo; conditions: post-emergence, 336 h; for pest or weed control at 70 g/ha: application rate 70 g ai/ha; for pest or weed control at 140 g/ha: application rate 140 g ai/ha
How it was run: (§1)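 Greenhouse post-emergent assay: seedlings (first/second true leaf) in Metro-Mix 360 were sprayed at 187 L/ha at a top rate plus twofold dilutions down to 1/16×; solvent-blank controls were included. Percent visual injury was read at 14 d.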

[2] = tested on: Key Broadleaf Weed and Crop Species; experiment: Post-emergent Test II herbicidal activity (Table 5); format: in vivo; conditions: post-emergence, 336 h, post-emergent, 14 days after application; for pest or weed control at 70 g/ha: 70 g ai/ha; for pest or weed control at 140 g/ha: 140 g ai/ha
How it was run: as §1

[3] = Triticum aestivum, TRZSS (wheat), read-out: Visual Growth Reduction (%) 14 Days After Application, TRZSS
[4] = CYPES: yellow nutsedge (Cyperus esculentus), read-out: Visual Growth Reduction (%) 14 Days After Application, CYPES
[5] = DIGSA: crabgrass (Digitaria sanguinalis), read-out: Visual Growth Reduction (%) 14 Days After Application, DIGSA
[6] = ECHCG: barnyardgrass (Echinochloa crus-galli), read-out: Visual Growth Reduction (%) 14 Days After Application, ECHCG
[7] = ORYSA: rice (Oryza sativa), read-out: Visual Growth Reduction (%) 14 Days After Application, ORYSA
[8] = SETFA: giant foxtail (Setaria faberi), read-out: Visual Growth Reduction (%) 14 Days After Application, SETFA
[9] = SORVU: grain sorghum (Sorghum vulgare), read-out: Visual Growth Reduction (%) 14 Days After Application, SORVU
[10] = ZEAMX: maize, corn (Zea mays), read-out: Visual Growth Reduction (%) 14 Days After Application, ZEAMX
[11] = ABUTH: velvetleaf (Abutilon theophrasti), read-out: Visual Growth Reduction (%) 14 Days After Application ABUTH
[12] = AMARE: redroot pigweed (Amaranthus retroflexus), read-out: Visual Growth Reduction (%) 14 Days After Application AMARE
[13] = BRSNN: oilseed-rape, canola (Brassica napus), read-out: Visual Growth Reduction (%) 14 Days After Application BRSNN
[14] = CHEAL: lambsquarters (Chenopodium album), read-out: Visual Growth Reduction (%) 14 Days After Application CHEAL
[15] = EPHHL: wild poinsettia (Euphorbia heterophylla), read-out: Visual Growth Reduction (%) 14 Days After Application EPHHL
[16] = HELAN: sunflower (Helianthus annuus), read-out: Visual Growth Reduction (%) 14 Days After Application HELAN
[17] = VIOTR: wild pansy (Viola tricolor), read-out: Visual Growth Reduction (%) 14 Days After Application VIOTR

Q: Which pest or weed control at 70 g/ha [1, 3] does the source give for COC(=O)c1nc(-c2ccc(Br)c(F)c2)nc(N)c1OC [Compound 171, Methyl 6-amino-2-(4-bromo-3-fluorophenyl)-5-methoxypyrimidine-4-carboxylate] here?
A: 30 to 44%

Q: And the pest or weed control at 140 g/ha [1, 3]?
A: 30 to 44%

Q: And the pest or weed control at 70 g/ha [1, 4]?
A: 45 to 59%

Q: And the pest or weed control at 140 g/ha [1, 4]?
A: 45 to 59%

Q: What about the pest or weed control at 70 g/ha [1, 5] of the same compound?
A: 0 to 29%

Q: And the pest or weed control at 140 g/ha [1, 5]?
A: 60 to 74%

Q: What about the pest or weed control at 70 g/ha [1, 6] of the same compound?
A: 30 to 44%

Q: What about the pest or weed control at 140 g/ha [1, 6] of the same compound?
A: 60 to 74%

Q: What about the pest or weed control at 70 g/ha [1, 7] of the same compound?
A: 0 to 29%

Q: What about the pest or weed control at 140 g/ha [1, 7] of the same compound?
A: 0 to 29%

Q: What about the pest or weed control at 70 g/ha [1, 8] of the same compound?
A: 0 to 29%

Q: And the pest or weed control at 140 g/ha [1, 8]?
A: 0 to 29%

Q: And the pest or weed control at 70 g/ha [1, 9]?
A: 0 to 29%

Q: And the pest or weed control at 140 g/ha [1, 9]?
A: 45 to 59%

Q: And the pest or weed control at 70 g/ha [1, 10]?
A: 60 to 74%

Q: What about the pest or weed control at 140 g/ha [1, 10] of the same compound?
A: 75 to 84%

Q: What about the pest or weed control at 70 g/ha [2, 11] of the same compound?
A: 75 to 84%

Q: And the pest or weed control at 140 g/ha [2, 11]?
A: 85 to 94%

Q: What about the pest or weed control at 70 g/ha [2, 12] of the same compound?
A: 85 to 94%

Q: And the pest or weed control at 140 g/ha [2, 12]?
A: 95 to 100%

Q: What about the pest or weed control at 70 g/ha [2, 13] of the same compound?
A: 85 to 94%

Q: What about the pest or weed control at 140 g/ha [2, 13] of the same compound?
A: 85 to 94%

Q: And the pest or weed control at 70 g/ha [2, 14]?
A: 85 to 94%

Q: And the pest or weed control at 140 g/ha [2, 14]?
A: 85 to 94%

Q: And the pest or weed control at 70 g/ha [2, 15]?
A: 95 to 100%

Q: What about the pest or weed control at 140 g/ha [2, 15] of the same compound?
A: 95 to 100%

Q: What about the pest or weed control at 70 g/ha [2, 16] of the same compound?
A: 85 to 94%

Q: What about the pest or weed control at 140 g/ha [2, 16] of the same compound?
A: 85 to 94%

Q: And the pest or weed control at 70 g/ha [2, 17]?
A: 95 to 100%

Q: What about the pest or weed control at 140 g/ha [2, 17] of the same compound?
A: 95 to 100%
